Read-outs that look alike come from different tables or passages of the source.
Key:
Assay type in all cases: cell-based
human NaV1.5 = human NaV1.5 (Homo sapiens, UniProt Q14524); assay: IonWorks Quattro (IWQ) electrophysiology, human NaV1.5
human NaV1.4 = human NaV1.4 (Homo sapiens, UniProt P35499); assay: IonWorks Quattro (IWQ) electrophysiology, human NaV1.4
human NaV1.7 = human NaV1.7 (Homo sapiens, UniProt Q15858); assay: IonWorks Quattro (IWQ) electrophysiology, human NaV1.7
[1] = read-out: Glu mutant IWQ IC50 NaV1.5
[2] = read-out: Glu mutant IWQ IC50 NaV1.4
[3] = read-out: Glu mutant IWQ IC50 NaV1.7
[4] = read-out: Ala mutant IWQ IC50 NaV1.5
[5] = read-out: Ala mutant IWQ IC50 NaV1.4
[6] = read-out: Ala mutant IWQ IC50 NaV1.7

Sequence of human NaV1.4 (P35499 whole entry): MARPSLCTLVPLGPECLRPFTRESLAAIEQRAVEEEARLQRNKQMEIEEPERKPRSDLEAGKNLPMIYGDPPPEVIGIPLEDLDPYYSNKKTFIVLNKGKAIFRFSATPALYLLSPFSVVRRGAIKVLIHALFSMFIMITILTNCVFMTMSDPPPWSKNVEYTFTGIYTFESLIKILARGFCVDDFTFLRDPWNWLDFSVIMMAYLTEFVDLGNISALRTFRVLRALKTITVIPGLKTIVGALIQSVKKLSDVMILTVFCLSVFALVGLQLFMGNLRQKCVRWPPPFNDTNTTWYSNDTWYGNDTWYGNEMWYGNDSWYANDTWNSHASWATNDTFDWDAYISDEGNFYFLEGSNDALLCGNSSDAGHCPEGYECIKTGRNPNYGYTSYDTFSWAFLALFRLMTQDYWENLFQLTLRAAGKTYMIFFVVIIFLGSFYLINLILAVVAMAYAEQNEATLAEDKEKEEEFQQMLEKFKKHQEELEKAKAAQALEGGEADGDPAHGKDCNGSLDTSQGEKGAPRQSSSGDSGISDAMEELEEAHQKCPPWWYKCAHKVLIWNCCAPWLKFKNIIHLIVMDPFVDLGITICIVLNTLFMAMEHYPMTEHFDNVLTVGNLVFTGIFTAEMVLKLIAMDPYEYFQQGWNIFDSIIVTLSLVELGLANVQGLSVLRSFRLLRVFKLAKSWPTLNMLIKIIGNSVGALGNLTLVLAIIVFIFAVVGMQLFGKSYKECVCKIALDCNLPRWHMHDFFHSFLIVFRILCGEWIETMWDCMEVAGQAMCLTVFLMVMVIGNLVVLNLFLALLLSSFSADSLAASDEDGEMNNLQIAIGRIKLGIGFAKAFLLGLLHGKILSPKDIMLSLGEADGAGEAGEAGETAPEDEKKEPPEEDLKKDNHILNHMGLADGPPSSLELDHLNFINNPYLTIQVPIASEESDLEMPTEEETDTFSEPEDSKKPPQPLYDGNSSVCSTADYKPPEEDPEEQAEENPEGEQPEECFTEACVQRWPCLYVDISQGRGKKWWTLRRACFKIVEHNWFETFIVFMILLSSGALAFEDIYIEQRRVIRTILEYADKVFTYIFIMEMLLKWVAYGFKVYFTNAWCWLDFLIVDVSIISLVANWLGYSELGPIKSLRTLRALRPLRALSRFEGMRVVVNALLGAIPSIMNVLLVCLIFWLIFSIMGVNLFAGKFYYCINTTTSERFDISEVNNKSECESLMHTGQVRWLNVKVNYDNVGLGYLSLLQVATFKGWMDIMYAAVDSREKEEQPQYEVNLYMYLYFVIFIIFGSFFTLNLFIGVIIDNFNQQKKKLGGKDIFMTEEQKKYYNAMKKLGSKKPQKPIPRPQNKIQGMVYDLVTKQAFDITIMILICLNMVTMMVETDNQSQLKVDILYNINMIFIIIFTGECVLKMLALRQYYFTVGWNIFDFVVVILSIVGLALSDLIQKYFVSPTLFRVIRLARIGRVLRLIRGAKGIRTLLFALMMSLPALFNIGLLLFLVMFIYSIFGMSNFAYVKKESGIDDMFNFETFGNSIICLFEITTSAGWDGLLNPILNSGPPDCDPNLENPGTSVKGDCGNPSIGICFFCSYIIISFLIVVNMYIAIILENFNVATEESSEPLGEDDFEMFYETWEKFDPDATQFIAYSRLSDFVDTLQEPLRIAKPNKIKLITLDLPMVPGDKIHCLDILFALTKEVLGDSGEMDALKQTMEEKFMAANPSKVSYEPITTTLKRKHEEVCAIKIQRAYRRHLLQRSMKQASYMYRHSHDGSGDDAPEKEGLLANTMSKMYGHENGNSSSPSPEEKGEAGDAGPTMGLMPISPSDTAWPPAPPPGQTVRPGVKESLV
Sequence of human NaV1.7 (Q15858 whole entry): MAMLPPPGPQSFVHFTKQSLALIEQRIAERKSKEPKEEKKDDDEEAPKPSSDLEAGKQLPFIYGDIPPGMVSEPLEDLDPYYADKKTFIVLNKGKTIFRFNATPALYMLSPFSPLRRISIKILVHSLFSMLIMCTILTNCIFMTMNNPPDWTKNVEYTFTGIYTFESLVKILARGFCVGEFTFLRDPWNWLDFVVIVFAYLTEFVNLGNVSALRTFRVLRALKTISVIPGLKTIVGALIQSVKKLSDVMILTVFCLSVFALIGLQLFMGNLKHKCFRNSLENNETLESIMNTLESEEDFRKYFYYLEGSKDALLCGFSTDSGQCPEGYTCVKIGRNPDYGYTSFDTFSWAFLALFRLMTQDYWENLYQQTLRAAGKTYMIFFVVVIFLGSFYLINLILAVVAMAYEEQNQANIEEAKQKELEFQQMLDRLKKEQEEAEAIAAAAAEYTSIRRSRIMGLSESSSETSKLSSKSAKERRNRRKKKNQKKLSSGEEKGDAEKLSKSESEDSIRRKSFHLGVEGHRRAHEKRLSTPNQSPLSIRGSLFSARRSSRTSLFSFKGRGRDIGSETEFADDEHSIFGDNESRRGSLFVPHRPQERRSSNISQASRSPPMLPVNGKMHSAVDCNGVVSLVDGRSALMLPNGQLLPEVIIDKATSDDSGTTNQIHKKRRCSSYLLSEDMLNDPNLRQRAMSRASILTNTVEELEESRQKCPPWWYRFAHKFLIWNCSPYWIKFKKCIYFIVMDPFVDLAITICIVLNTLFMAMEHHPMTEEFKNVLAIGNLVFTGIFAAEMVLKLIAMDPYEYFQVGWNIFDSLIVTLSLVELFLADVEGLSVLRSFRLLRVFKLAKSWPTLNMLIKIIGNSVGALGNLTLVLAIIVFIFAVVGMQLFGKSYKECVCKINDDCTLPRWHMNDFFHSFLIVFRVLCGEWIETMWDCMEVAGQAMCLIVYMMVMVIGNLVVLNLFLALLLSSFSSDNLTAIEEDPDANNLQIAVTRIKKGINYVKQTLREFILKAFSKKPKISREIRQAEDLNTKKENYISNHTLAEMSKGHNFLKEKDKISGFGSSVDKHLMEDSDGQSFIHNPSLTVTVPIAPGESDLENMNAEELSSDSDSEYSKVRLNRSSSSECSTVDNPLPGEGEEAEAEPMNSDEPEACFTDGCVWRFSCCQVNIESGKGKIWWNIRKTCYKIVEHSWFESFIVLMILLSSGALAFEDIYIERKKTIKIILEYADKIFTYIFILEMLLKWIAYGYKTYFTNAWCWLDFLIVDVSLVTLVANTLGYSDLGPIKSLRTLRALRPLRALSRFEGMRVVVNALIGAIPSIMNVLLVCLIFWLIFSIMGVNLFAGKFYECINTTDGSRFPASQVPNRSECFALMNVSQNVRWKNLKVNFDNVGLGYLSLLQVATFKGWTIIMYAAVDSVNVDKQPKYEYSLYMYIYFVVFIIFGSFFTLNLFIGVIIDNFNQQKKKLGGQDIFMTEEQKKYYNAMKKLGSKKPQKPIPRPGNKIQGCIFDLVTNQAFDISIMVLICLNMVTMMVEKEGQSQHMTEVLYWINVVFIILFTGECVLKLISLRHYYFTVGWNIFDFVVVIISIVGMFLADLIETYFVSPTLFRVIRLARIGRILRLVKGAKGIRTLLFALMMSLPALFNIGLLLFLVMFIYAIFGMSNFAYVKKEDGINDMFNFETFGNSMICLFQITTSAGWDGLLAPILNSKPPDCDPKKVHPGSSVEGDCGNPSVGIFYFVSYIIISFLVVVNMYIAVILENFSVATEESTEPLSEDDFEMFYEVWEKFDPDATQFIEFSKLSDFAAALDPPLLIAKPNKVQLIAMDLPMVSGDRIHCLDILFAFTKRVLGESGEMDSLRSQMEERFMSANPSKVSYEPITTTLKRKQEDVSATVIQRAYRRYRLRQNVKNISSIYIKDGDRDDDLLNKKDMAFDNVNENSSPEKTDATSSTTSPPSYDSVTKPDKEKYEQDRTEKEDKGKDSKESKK

Q: Which IC50 (human NaV1.5; [1]) does the source give for CC[C@H](C)[C@H](NC(=O)[C@@H](NC(=O)[C@H](CCCCN)NC(=O)[C@H](CCCNC(=N)N)NC(=O)[C@@H]1CSSC[C@@H]2NC(=O)[C@H](C)NC(=O)[C@H](CCC(=O)O)NC(=O)[C@H](CCCCN)NC(=O)[C@H](CO)NC(=O)[C@H](CC(=O)O)NC(=O)[C@@H]3CSSC[C@H](NC(=O)[C@H](CCCNC(=N)N)NC(=O)[C@H](CC(C)C)NC(=O)CNC(=O)[C@H](CCC(=O)O)NC(=O)[C@H](CSSC[C@H](NC(=O)[C@@H](N)Cc4ccc(O)cc4)C(=O)N[C@@H](CCC(N)=O)C(=O)N[C@@H](CCCCN)C(=O)N[C@@H](Cc4c[nH]c5ccccc45)C(=O)N[C@@H](CCSC)C(=O)N[C@@H](Cc4c[nH]c5ccccc45)C(=O)N[C@@H]([C@@H](C)O)C(=O)N3)NC2=O)C(=O)N[C@@H](CCCCN)C(=O)N[C@@H](CC(C)C)C(=O)N[C@@H](Cc2c[nH]c3ccccc23)C(=O)N1)[C@@H](C)CC)C(N)=O [R13 Glu mutant] here?
A: > 10000 nM

Q: What about the IC50 (human NaV1.4; [2]) of the same molecule?
A: > 10000 nM

Q: And the IC50 (human NaV1.7; [3])?
A: 4570 nM

Q: How did the IC50 (human NaV1.5; [1]) turn out when CC[C@H](C)[C@H](NC(=O)[C@@H](NC(=O)[C@H](CCCCN)NC(=O)[C@H](CCCNC(=N)N)NC(=O)[C@@H]1CSSC[C@@H]2NC(=O)[C@H](C)NC(=O)[C@H](CCCNC(=N)N)NC(=O)[C@H](CCCCN)NC(=O)[C@H](CO)NC(=O)[C@H](CC(=O)O)NC(=O)[C@@H]3CSSC[C@H](NC(=O)[C@H](CCCNC(=N)N)NC(=O)[C@H](CC(C)C)NC(=O)CNC(=O)[C@H](CCC(=O)O)NC(=O)[C@H](CSSC[C@H](NC(=O)[C@@H](N)Cc4ccc(O)cc4)C(=O)N[C@@H](CCC(N)=O)C(=O)N[C@@H](CCCCN)C(=O)N[C@@H](Cc4c[nH]c5ccccc45)C(=O)N[C@@H](CCSC)C(=O)N[C@@H](Cc4c[nH]c5ccccc45)C(=O)N[C@@H](CCC(=O)O)C(=O)N3)NC2=O)C(=O)N[C@@H](CCCCN)C(=O)N[C@@H](CC(C)C)C(=O)N[C@@H](Cc2c[nH]c3ccccc23)C(=O)N1)[C@@H](C)CC)C(N)=O [T8 Glu mutant] was run?
A: > 10000 nM

Q: And the IC50 (human NaV1.4; [2])?
A: > 10000 nM

Q: And the IC50 (human NaV1.7; [3])?
A: 3860 nM

Q: CC[C@H](C)[C@H](NC(=O)[C@@H](NC(=O)[C@H](CCCCN)NC(=O)[C@H](CCCNC(=N)N)NC(=O)[C@@H]1CSSC[C@@H]2NC(=O)[C@H](C)NC(=O)[C@H](CCCNC(=N)N)NC(=O)[C@H](CCCCN)NC(=O)[C@H](CO)NC(=O)[C@H](CC(=O)O)NC(=O)[C@@H]3CSSC[C@H](NC(=O)[C@H](CCCNC(=N)N)NC(=O)[C@H](CC(C)C)NC(=O)[C@H](CCC(=O)O)NC(=O)[C@H](CCC(=O)O)NC(=O)[C@H](CSSC[C@H](NC(=O)[C@@H](N)Cc4ccc(O)cc4)C(=O)N[C@@H](CCC(N)=O)C(=O)N[C@@H](CCCCN)C(=O)N[C@@H](Cc4c[nH]c5ccccc45)C(=O)N[C@@H](CCSC)C(=O)N[C@@H](Cc4c[nH]c5ccccc45)C(=O)N[C@@H]([C@@H](C)O)C(=O)N3)NC2=O)C(=O)N[C@@H](CCCCN)C(=O)N[C@@H](CC(C)C)C(=O)N[C@@H](Cc2c[nH]c3ccccc23)C(=O)N1)[C@@H](C)CC)C(N)=O [G18 Glu mutant] was tested. Which IC50 (human NaV1.5; [1]) did it give?
A: > 10000 nM

Q: What about the IC50 (human NaV1.4; [2]) of the same molecule?
A: 1220 nM

Q: And the IC50 (human NaV1.7; [3])?
A: 165 nM

Q: How did the IC50 (human NaV1.5; [4]) turn out when CC[C@H](C)[C@H](NC(=O)[C@@H](NC(=O)[C@H](CCCCN)NC(=O)[C@H](CCCNC(=N)N)NC(=O)[C@@H]1CSSC[C@@H]2NC(=O)[C@H](C)NC(=O)[C@H](CCCNC(=N)N)NC(=O)[C@H](CCCCN)NC(=O)[C@H](CO)NC(=O)[C@H](C)NC(=O)[C@@H]3CSSC[C@H](NC(=O)[C@H](CCCNC(=N)N)NC(=O)[C@H](CC(C)C)NC(=O)CNC(=O)[C@H](CCC(=O)O)NC(=O)[C@H](CSSC[C@H](NC(=O)[C@@H](N)Cc4ccc(O)cc4)C(=O)N[C@@H](CCC(N)=O)C(=O)N[C@@H](CCCCN)C(=O)N[C@@H](Cc4c[nH]c5ccccc45)C(=O)N[C@@H](CCSC)C(=O)N[C@@H](Cc4c[nH]c5ccccc45)C(=O)N[C@@H]([C@@H](C)O)C(=O)N3)NC2=O)C(=O)N[C@@H](CCCCN)C(=O)N[C@@H](CC(C)C)C(=O)N[C@@H](Cc2c[nH]c3ccccc23)C(=O)N1)[C@@H](C)CC)C(N)=O [D10 Ala mutant] was run?
A: > 10000 nM

Q: What about the IC50 (human NaV1.4; [5]) of the same molecule?
A: 917 nM

Q: What about the IC50 (human NaV1.7; [6]) of the same molecule?
A: 345 nM

Q: For CC[C@H](C)[C@H](NC(=O)[C@@H](NC(=O)[C@H](CCCCN)NC(=O)[C@H](CCCNC(=N)N)NC(=O)[C@@H]1CSSC[C@@H]2NC(=O)[C@H](C)NC(=O)[C@H](CCCNC(=N)N)NC(=O)[C@H](CCC(=O)O)NC(=O)[C@H](CO)NC(=O)[C@H](CC(=O)O)NC(=O)[C@@H]3CSSC[C@H](NC(=O)[C@H](CCCNC(=N)N)NC(=O)[C@H](CC(C)C)NC(=O)CNC(=O)[C@H](CCC(=O)O)NC(=O)[C@H](CSSC[C@H](NC(=O)[C@@H](N)Cc4ccc(O)cc4)C(=O)N[C@@H](CCC(N)=O)C(=O)N[C@@H](CCCCN)C(=O)N[C@@H](Cc4c[nH]c5ccccc45)C(=O)N[C@@H](CCSC)C(=O)N[C@@H](Cc4c[nH]c5ccccc45)C(=O)N[C@@H]([C@@H](C)O)C(=O)N3)NC2=O)C(=O)N[C@@H](CCCCN)C(=O)N[C@@H](CC(C)C)C(=O)N[C@@H](Cc2c[nH]c3ccccc23)C(=O)N1)[C@@H](C)CC)C(N)=O [K12 Glu mutant], which IC50 (human NaV1.5; [1]) is on record?
A: > 10000 nM

Q: And the IC50 (human NaV1.4; [2])?
A: > 10000 nM

Q: And the IC50 (human NaV1.7; [3])?
A: 755 nM

Q: Which IC50 (human NaV1.5; human, read-out: Glu mutant IWQ IC50 NaV1.5) does the source give for CC[C@H](C)[C@H](NC(=O)[C@@H](NC(=O)[C@H](CCCCN)NC(=O)[C@H](CCCNC(=N)N)NC(=O)[C@@H]1CSSC[C@@H]2NC(=O)[C@H](C)NC(=O)[C@H](CCCNC(=N)N)NC(=O)[C@H](CCCCN)NC(=O)[C@H](CO)NC(=O)[C@H](CC(=O)O)NC(=O)[C@@H]3CSSC[C@H](NC(=O)[C@H](CCC(=O)O)NC(=O)[C@H](CC(C)C)NC(=O)CNC(=O)[C@H](CCC(=O)O)NC(=O)[C@H](CSSC[C@H](NC(=O)[C@@H](N)Cc4ccc(O)cc4)C(=O)N[C@@H](CCC(N)=O)C(=O)N[C@@H](CCCCN)C(=O)N[C@@H](Cc4c[nH]c5ccccc45)C(=O)N[C@@H](CCSC)C(=O)N[C@@H](Cc4c[nH]c5ccccc45)C(=O)N[C@@H]([C@@H](C)O)C(=O)N3)NC2=O)C(=O)N[C@@H](CCCCN)C(=O)N[C@@H](CC(C)C)C(=O)N[C@@H](Cc2c[nH]c3ccccc23)C(=O)N1)[C@@H](C)CC)C(N)=O [R20 Glu mutant] here?
A: > 5000 nM

Q: What about the IC50 (human NaV1.4; [2]) of the same molecule?
A: 1820 nM

Q: And the IC50 (human NaV1.7; [3])?
A: 217 nM

Q: How did the IC50 (human NaV1.5; [4]) turn out when CC[C@H](C)[C@H](NC(=O)[C@@H](NC(=O)[C@H](CCCCN)NC(=O)[C@H](CCCNC(=N)N)NC(=O)[C@@H]1CSSC[C@@H]2NC(=O)[C@H](C)NC(=O)[C@H](CCCNC(=N)N)NC(=O)[C@H](CCCCN)NC(=O)[C@H](CO)NC(=O)[C@H](CC(=O)O)NC(=O)[C@@H]3CSSC[C@H](NC(=O)[C@H](CCCNC(=N)N)NC(=O)[C@H](C)NC(=O)CNC(=O)[C@H](CCC(=O)O)NC(=O)[C@H](CSSC[C@H](NC(=O)[C@@H](N)Cc4ccc(O)cc4)C(=O)N[C@@H](CCC(N)=O)C(=O)N[C@@H](CCCCN)C(=O)N[C@@H](Cc4c[nH]c5ccccc45)C(=O)N[C@@H](CCSC)C(=O)N[C@@H](Cc4c[nH]c5ccccc45)C(=O)N[C@@H]([C@@H](C)O)C(=O)N3)NC2=O)C(=O)N[C@@H](CCCCN)C(=O)N[C@@H](CC(C)C)C(=O)N[C@@H](Cc2c[nH]c3ccccc23)C(=O)N1)[C@@H](C)CC)C(N)=O [L19 Ala mutant] was run?
A: > 10000 nM

Q: And the IC50 (human NaV1.4; [5])?
A: > 10000 nM

Q: And the IC50 (human NaV1.7; [6])?
A: 2810 nM
